This note sets out measurements from article PMC4201332 (ACS Chemical Biology, 2014).

The term EC50 denotes the concentration needed to bring the measured effect to its halfway point. A word on the IC50: it is the concentration that gives 50% inhibition. Lower therefore signals greater potency.

Structures are written as SMILES.

One series has as its target hmGlu1 (Homo sapiens, UniProt Q13255). Briefly: Calcium mobilization mGlu1 PAM potency assay. Format: cell-based. The following applies: for Emax: T-REx-293, read-out: hmGlu1 % Glu Max (±SEM).
The test system of series [1] is amphetamine-induced hyperlocomotion in WT rats. Briefly: Amphetamine-induced hyperlocomotion. The following applies: doses up to 100 mg/kg i.p. Format: in vivo, rat.
For a further series, the target named is hmGlu4 (Homo sapiens, UniProt Q14833). Briefly: Calcium mobilization mGlu4 assay. It counts as cell-based. Background: Calcium assays in cells follow changes in intracellular calcium, usually with a dye or a luminescent sensor.
hmGlu4, sequence (Q14833 33-912): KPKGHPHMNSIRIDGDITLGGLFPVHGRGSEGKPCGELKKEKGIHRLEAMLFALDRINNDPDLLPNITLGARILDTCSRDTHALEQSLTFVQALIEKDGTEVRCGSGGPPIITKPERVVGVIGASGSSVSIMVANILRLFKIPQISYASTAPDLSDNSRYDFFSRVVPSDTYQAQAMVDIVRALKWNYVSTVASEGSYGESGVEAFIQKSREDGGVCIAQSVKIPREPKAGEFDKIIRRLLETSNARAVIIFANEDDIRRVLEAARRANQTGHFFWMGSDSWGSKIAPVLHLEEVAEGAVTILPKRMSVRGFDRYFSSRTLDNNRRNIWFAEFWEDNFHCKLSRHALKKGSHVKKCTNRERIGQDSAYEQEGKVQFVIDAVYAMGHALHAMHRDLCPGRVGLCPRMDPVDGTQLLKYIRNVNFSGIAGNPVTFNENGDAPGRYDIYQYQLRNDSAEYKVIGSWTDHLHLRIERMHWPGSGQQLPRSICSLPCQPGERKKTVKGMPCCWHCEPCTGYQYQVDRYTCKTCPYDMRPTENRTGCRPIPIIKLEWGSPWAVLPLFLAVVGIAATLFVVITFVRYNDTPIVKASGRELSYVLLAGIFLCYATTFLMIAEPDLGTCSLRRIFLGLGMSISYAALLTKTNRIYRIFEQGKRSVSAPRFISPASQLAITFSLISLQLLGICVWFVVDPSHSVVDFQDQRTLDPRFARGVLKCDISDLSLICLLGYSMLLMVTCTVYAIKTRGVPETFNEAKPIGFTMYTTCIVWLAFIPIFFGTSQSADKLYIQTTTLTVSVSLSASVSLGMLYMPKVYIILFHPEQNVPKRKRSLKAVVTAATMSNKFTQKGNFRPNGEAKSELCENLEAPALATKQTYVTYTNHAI
For series [2], the target named is T1, mGlu1 WT receptor (Homo sapiens, UniProt Q13255). Format: cell-based. The following applies: 10 μM PAM.
T1 sequence (Q13255 19-1194): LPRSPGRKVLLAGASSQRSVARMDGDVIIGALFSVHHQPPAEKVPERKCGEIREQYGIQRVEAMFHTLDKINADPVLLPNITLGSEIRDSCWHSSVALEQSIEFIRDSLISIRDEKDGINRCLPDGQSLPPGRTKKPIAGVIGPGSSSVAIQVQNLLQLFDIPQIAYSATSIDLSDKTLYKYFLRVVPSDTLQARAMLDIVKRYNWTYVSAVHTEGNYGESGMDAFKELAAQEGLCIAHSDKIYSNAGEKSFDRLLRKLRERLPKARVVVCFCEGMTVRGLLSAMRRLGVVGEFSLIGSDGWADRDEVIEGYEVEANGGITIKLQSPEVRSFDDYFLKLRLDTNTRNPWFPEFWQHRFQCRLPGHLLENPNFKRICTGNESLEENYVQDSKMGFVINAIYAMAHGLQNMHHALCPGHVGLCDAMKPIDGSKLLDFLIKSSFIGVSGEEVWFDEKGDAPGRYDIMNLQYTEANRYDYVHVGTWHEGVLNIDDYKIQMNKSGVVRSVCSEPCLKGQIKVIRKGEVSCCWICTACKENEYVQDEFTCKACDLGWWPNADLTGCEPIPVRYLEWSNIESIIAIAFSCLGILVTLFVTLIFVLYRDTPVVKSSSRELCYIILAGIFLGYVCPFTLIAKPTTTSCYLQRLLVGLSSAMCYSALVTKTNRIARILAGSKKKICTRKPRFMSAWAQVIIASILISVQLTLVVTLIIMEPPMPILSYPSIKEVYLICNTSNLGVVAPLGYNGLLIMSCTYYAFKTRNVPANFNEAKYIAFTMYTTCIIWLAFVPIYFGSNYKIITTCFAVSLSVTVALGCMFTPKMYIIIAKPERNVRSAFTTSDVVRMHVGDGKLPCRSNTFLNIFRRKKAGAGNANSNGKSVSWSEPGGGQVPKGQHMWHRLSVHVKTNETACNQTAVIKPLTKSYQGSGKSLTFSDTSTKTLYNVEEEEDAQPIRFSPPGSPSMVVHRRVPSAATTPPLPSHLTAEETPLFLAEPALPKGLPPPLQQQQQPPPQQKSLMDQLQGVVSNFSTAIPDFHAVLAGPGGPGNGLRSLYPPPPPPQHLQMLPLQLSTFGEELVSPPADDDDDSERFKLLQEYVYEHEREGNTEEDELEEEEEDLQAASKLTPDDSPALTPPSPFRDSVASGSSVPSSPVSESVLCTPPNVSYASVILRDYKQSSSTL
The target of series [3] is T1, mGlu1 WT receptor. It counts as cell-based.
Another series addresses CYP2D6 (Homo sapiens, UniProt P10635). Briefly: Cytochrome P450 inhibition. Format: in vitro ADME.
In a further series the target is CYP3A4 (Homo sapiens, UniProt P08684). Kind of series: Cytochrome P450 inhibition. Format: in vitro ADME.
CYP3A4, sequence (P08684 whole entry): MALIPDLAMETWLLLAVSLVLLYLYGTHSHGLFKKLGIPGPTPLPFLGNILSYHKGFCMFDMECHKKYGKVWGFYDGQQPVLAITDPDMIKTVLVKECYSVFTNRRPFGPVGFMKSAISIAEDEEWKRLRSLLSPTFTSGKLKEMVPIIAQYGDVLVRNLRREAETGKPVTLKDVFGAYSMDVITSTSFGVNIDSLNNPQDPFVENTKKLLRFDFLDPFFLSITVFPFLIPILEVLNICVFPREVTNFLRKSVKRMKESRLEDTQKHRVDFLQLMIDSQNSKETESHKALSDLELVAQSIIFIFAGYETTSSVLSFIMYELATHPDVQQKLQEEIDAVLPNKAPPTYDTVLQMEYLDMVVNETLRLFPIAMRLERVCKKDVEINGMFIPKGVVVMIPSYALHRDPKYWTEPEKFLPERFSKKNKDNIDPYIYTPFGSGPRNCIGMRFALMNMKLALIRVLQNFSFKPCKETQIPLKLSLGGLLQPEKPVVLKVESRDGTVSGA
The target of the next series is T2, CYP1A2 (Homo sapiens, UniProt P05177).
T2 sequence (P05177 1-516): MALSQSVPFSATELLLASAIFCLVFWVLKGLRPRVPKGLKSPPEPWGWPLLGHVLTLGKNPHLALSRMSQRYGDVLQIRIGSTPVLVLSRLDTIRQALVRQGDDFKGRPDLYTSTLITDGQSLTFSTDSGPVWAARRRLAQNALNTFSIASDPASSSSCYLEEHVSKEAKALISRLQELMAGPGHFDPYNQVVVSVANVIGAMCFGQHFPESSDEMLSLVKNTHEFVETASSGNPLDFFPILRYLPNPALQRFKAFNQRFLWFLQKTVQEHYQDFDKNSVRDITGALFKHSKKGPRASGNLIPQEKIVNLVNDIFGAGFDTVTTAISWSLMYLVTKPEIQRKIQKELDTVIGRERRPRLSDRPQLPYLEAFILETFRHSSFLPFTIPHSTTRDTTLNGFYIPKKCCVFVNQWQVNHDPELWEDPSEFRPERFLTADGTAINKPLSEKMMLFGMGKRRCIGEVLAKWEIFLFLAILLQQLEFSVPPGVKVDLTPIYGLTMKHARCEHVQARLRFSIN
Briefly: Cytochrome P450 inhibition. Format: in vitro ADME.

In another series the target is CYP2C9 (Homo sapiens, UniProt P11712). Kind of series: Cytochrome P450 inhibition. Format: in vitro ADME.
CYP2C9, sequence (P11712 whole entry): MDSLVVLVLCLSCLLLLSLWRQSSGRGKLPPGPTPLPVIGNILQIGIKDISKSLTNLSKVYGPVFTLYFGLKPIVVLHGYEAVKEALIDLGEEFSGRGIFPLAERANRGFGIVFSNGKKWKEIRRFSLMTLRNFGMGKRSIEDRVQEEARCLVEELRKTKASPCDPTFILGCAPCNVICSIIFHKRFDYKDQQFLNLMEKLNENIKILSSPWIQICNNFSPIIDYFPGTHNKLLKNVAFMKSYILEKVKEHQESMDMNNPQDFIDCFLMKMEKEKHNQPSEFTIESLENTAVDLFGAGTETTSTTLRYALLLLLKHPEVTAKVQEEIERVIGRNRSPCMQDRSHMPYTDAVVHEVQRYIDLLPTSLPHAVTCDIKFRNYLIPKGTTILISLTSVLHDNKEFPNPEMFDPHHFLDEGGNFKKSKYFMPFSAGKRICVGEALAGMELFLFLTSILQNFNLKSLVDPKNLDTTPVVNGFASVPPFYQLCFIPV
Another series has as its target mGlu1 P1015A mutant (Homo sapiens, UniProt Q13255, P1015A). Briefly: Calcium mobilization in stable Sz mutant cell line. Format: cell-based. Conditions: agonist DHPG.
Another series deals with mGlu1 Sz mutants. Briefly: Calcium mobilization in stable cell lines expressing schizophrenia. It counts as cell-based, human.
A further series deals with mGlu1 K563N mutant (Homo sapiens, UniProt Q13255, K563N). Kind of series: Calcium mobilization in stable Sz mutant cell line. The following applies: agonist DHPG. Format: cell-based.
mGlu1 K563N mutant, sequence (Q13255 19-1194 K563N): as the sequence (Q13255 19-1194) above, with K545N counted along it
Where [4] appears, read: hmGlu1 EC50, calcium mobilization, average of n = 3 performed in triplicate.

hmGlu1, sequence (Q13255 19-1194): as the sequence (Q13255 19-1194) above
mGlu1 P1015A mutant, sequence (Q13255 19-1194 P1015A): as the sequence (Q13255 19-1194) above, with P997A counted along it
CYP2D6, sequence (P10635 whole entry): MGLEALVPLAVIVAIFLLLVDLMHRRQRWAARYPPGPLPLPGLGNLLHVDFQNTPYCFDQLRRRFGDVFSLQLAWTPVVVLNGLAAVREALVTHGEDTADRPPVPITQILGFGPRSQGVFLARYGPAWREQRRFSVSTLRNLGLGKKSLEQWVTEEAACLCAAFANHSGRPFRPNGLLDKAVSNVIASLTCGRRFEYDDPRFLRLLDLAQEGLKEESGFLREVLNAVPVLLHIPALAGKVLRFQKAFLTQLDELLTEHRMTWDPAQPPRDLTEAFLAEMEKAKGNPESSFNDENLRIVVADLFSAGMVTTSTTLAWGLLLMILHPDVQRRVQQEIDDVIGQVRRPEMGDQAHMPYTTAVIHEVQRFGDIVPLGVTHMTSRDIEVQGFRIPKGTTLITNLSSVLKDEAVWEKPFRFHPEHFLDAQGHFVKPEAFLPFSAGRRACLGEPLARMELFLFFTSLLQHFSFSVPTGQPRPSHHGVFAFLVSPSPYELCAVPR

On to `Cc1cccnc1C(=O)Nc1ccc(N2C(=O)c3cccc(C)c3C2=O)c(Cl)c1` [23a], for which the Emax on hmGlu1 amounted to 101 ± 7%. The EC50 on hmGlu1 (setting [4]) amounted to 0.176 µM.

With `Cc1ccc2c(c1)C(=O)N(c1ccc(NC(=O)c3ncccc3C)cc1Cl)C2=O` [23b], at hmGlu1, the Emax came out at 130 ± 26%. Besides, on hmGlu1 (setting [4]), the EC50 is above 10 µM.

On to `Cc1cccnc1C(=O)Nc1ccc(N2C(=O)c3cccc(Cl)c3C2=O)c(Cl)c1` [23c], for which, in [1], the “effect on amphetamine-induced hyperlocomotion” value was “behaved similarly”. Further, the EC50 was determined as 0.199 µM at hmGlu4; 0.372 µM on hmGlu1 (setting [4]); 0.37 µM at hmGlu1 (hmGlu1 EC50, text and Figure 6). Also, the “hmGlu4 % Glu Max” value on hmGlu4 (calcium mobilization) is 55%. Moreover, on mGlu1 WT receptor [2], the “left-ward fold shift of the glutamate concentration response curve” value is on record as around 3 fold. Besides, the “leftward fold shift of the DHPG concentration-response curve” value at mGlu1 WT receptor [3] (10 μM PAM, WT mGlu1) was 3.4 fold. In addition, the “hmGlu1 % Glu Max (±SEM)” value on hmGlu1 (calcium mobilization) is 126 ± 25%.

As for `Cc1cccnc1C(=O)Nc1ccc(N2C(=O)c3cccc(F)c3C2=O)c(Cl)c1` [23e], the Emax at hmGlu1 amounted to 90 ± 15%. Also, the EC50 at hmGlu1 (setting [4]) turned out to be 0.418 µM.

For the compound `Cc1cccnc1C(=O)Nc1ccc(N2C(=O)c3ccc(F)cc3C2=O)c(Cl)c1` [23f], the EC50 at hmGlu1 (setting [4]) is above 10 µM.

As for `Cc1cccc2c1C(=O)N(c1ccc(NC(=O)c3ncccc3Cl)cc1Cl)C2=O` [24a], the Emax on hmGlu1 is 110 ± 21%. Moreover, the EC50 on hmGlu1 (setting [4]) worked out at 0.177 µM.

`Cc1ccc2c(c1)C(=O)N(c1ccc(NC(=O)c3ncccc3Cl)cc1Cl)C2=O` [24b]: at hmGlu1, the Emax amounted to 82 ± 4%. The EC50 at hmGlu1 (setting [4]) was found to be 0.832 µM.

Consider `O=C(Nc1ccc(N2C(=O)c3cccc(Cl)c3C2=O)c(Cl)c1)c1ncccc1Cl` [24c, N-(3-chloro-4-(4-chloro-1,3-dioxoisoindolin-2-yl)phenyl)-3-chloropicolinamide], for which the IC50 at CYP2D6, against CYP3A4, at CYP1A2 and against CYP2C9 was above 30 µM throughout. In [1], the “effect on amphetamine-induced hyperlocomotion” value is reported as “no effect up to the highest dose”. The “hmGlu1 % Glu Max (±SEM)” value at hmGlu1 (calcium mobilization) came to 110 ± 15%. Also, the EC50 at hmGlu1 (setting [4]) was 0.391 µM; on hmGlu1 (hmGlu1 pEC50 (±SEM), calcium mobilization), 0.389 µM.

Take `O=C(Nc1ccc(N2C(=O)c3cccc(F)c3C2=O)c(Cl)c1)c1ncccc1Cl` [24e]: the Emax at hmGlu1 was 117 ± 9%. Further, on hmGlu1 (setting [4]), the EC50 was 1.14 µM.

On to `N[C@H](C(=O)O)c1cc(O)cc(O)c1` [DHPG, (S)-3,5-dihydroxyphenylglycine], for which the “calcium response, % of WT response” value was around 90% on mGlu1 P1015A mutant and 55–75% in the series on mGlu1 Sz mutants (agonist DHPG, majority of mutants, typically). On mGlu1 WT receptor [3], this compound gave an EC50 of 2.5 µM. For the same compound, at mGlu1 K563N mutant, the “calcium response, % of WT” value was around 110%.

`N[C@@H](CCC(=O)O)C(=O)O` [glutamate, L-glutamic acid]: the “calcium response, % of the WT response” value in the series on mGlu1 Sz mutants (agonist glutamate, mutants typically, except K563N and P1015A) is on record as 45–65%.
